Measurements from US20150336999A1, “PROCESS FOR THE PRODUCTION OF SOPHOROSE STARTING FROM SOPHOROLIPIDS” (IFP ENERGIES NOUVELLES, priority 2012, published 2015).
“And” between values parts separate entries of the source, which are not always exact repeats. Equal values may be shown once.

Assays:
T. reesei CL847 = assay: Fed-batch cellulase production by T. reesei CL847 with sugar mixture containing inducing sugar; specific rate of protein production; format: cell-based, Trichoderma reesei; details: for specific protein production rate: fed-batch 166 h, 30° C.
Protocol: After growing cells of T. reesei CL847 (Durand H. et al. (1988a) Classical and molecular genetics applied to Trichoderma reesei for the selection of improved cellulolytic industrial strains. In: FEMS Symposium n° 43: Biochemistry and Genetics of Cellulose Degradation, p. 135-151. Academic Press, London) on glucose in stirred flasks up to the exhaustion of the glucose, cellulase production was carried out using a “fed-batch” process employing a solution the composition of which was as follows: 50 g/L of a mixture of sugars and 15 mL/L of 20% by weight NH3 as described in the publication “A new stoichiometric miniaturization strategy for screening of industrial microbial strains: application to cellulase hyper-producing Trichoderma reesei strains”, Microbial Cell Factories 2012, 11:70.
The mixture of sugars used contained (100−x)% by weight of glucose and x% by weight of inducing sugar:
in the first case (control), the inducing sugar was lactose at a quantity of x=8%
in the second, third and fourth cases, the inducing sugar was sophorose from the hydrolysate obtained in Example 3 which had been supplemented with pure glucose in order to have x=8%, x=0.3% and x=0.03% respectively.
The fed-batch process was carried out for 166 hours with a solution supply flow rate of 0.3 mL/h and at a temperature of 30° C.
Daily samples were taken in order to monitor the concentration of cells and the concentration of proteins. The induction capacity of the mixture of sugars used for the fed-batch process was expressed as the specific rate of protein production (mg of proteins produced per gram of producer cells per hour).

[1] = system: cellulolytic Trichoderma reesei system; details: known from the prior art (Mandels et al. 1962); cited from earlier work
[2] = inducing sugar x=8% by weight of sugar mixture (rest glucose)

| SMILES | induction relative to the mixture containing lactose at the same concentration (T. reesei CL847; 8% sophorose versus 8% lactose) | specific protein production rate (T. reesei CL847; inducing sugar x=0.03% by weight of sugar mixture (rest glucose)) [mg/g/h] | specific protein production rate (T. reesei CL847; inducing sugar x=0.3% by weight of sugar mixture (rest glucose)) [mg/g/h] | specific protein production rate (T. reesei CL847; [2]) | inducer of the cellulolytic Trichoderma reesei system [1] |
| --- | --- | --- | --- | --- | --- |
| O=C[C@H](O[C@@H]1O[C@H](CO)[C@@H](O)[C@H](O)[C@H]1O)[C@@H](O)[C@H](O)[C@H](O)CO [sophorose, 2-O-β-D-glucopyranosyl-D-glucose] | approximately twice as high | ~6 | 10.5 | 12 mg/g/h | very good inducer |
| OC[C@H]1O[C@@H](O[C@H]2[C@H](O)[C@@H](O)C(O)O[C@@H]2CO)[C@H](O)[C@@H](O)[C@H]1O (stereo partly drawn) [lactose, reference compound] | – | – | – | 6.4 mg/g/h and ~6 mg/g/h | – |
